Measurements reported in ChEMBL document CHEMBL1133035, “Cysteine chloromethyl and diazomethyl ketone derivatives with potent anti-leukemic activity” (Bioorg Med Chem Lett, 2000).
Where a SMILES comes first, the peptide text is derived from it. The star is where a group is joined. Farnesyl = CC(C)=CCC/C(C)=C/CC/C(C)=C/C*; Boc = CC(C)(C)OC(=O)*; CHN2 = [N-]=[N+]=C*; CH2Cl = ClC*

Assays:
NALM-6 = assay: Anti-leukemic activity against Nalm-6 (B-lineage ALL) human acute lymphoblastic leukemia (ALL) cell line; type: functional, cell-based
MOLT-3 = assay: Anti-leukemic activity against Molt-3 (T-lineage ALL) human acute lymphoblastic leukemia (ALL) cell line; type: functional, cell-based

Row | SMILES | IC50 (NALM-6) [µM] | IC50 (MOLT-3) [µM]
1 | CC(=O)N[C@@H](CSC/C=C(\C)CCC=C(C)C)C(=O)C=[N+]=[N-] | > 100 | > 100
2 | CC(=O)N[C@@H](CSC/C=C(\C)CC/C=C(\C)CCC=C(C)C)C(=O)C=[N+]=[N-] | 30.3 | 32.2
3 | CCCCCCCCCCCCSC[C@H](NC(C)=O)C(=O)C=[N+]=[N-] | 15.4 | 22.9
4 | CC(=O)N[C@@H](CSC/C=C(\C)CC/C=C(\C)CCC=C(C)C)C(=O)CCl | 3 | 1.4
5 | CC(C)=CCC/C(C)=C/CC/C(C)=C/CSCCC(=O)CCl | 40.7 | 35.5
6 | CC(C)=CCC/C(C)=C/CC/C(C)=C/CSC[C@H](NC(=O)OC(C)(C)C)C(=O)C=[N+]=[N-] | 49.8 | 50.1
7 | CC(=O)N[C@@H](CSCC=C(C)C)C(=O)C=[N+]=[N-] | > 100 | > 100
8 | CC(C)=CCC/C(C)=C/CC/C(C)=C/CSC[C@H](NC(=O)CNC(=O)OC(C)(C)C)C(=O)CCl (Boc-Gly-Cys(Farnesyl)-CH2Cl) | 12.9 | 17.5

Continued, values first:

Row | IC50 (NALM-6) [µM] | IC50 (MOLT-3) [µM] | SMILES
9 | 10.7 | 7.7 | CC(C)=CCC/C(C)=C/CC/C(C)=C/CSC[C@H](NC(=O)OC(C)(C)C)C(=O)CCl
10 | 12.6 | 7.9 | CC(=O)N[C@@H](CSCC=C(C)C)C(=O)CCl
11 | > 100 | > 100 | CC(=O)N[C@@H](CSC/C=C(\C)CCC=C(C)C)C(=O)CCl
12 | 15.1 | 15.5 | CCCCCCCCCCCCSC[C@H](NC(=O)OC(C)(C)C)C(=O)CCl
13 | 84.3 | > 100 | CC(C)=CCC/C(C)=C/CC/C(C)=C/CSCC(=O)CCl
14 | 2 | 2.3 | CCCCCCCCCCCCSC[C@H](NC(C)=O)C(=O)CCl
15 | 17.7 | 12.5 | CCCCCCCCCCCCSC[C@H](N)C(=O)CCl
16 | 51.3 | 84.5 | CC(C)=CCC/C(C)=C/CC/C(C)=C/CSC[C@H](NC(=O)CNC(=O)OC(C)(C)C)C(=O)C=[N+]=[N-] (Boc-Gly-Cys(Farnesyl)-CHN2)
